Common to all, as to format: biochemical
Assay [1] has as its target T1, Recombinant Human FAPα (Homo sapiens, UniProt Q12884).
T1 construct: purchased R&D Systems 3715-SE-010
T1 sequence (Q12884 1-760): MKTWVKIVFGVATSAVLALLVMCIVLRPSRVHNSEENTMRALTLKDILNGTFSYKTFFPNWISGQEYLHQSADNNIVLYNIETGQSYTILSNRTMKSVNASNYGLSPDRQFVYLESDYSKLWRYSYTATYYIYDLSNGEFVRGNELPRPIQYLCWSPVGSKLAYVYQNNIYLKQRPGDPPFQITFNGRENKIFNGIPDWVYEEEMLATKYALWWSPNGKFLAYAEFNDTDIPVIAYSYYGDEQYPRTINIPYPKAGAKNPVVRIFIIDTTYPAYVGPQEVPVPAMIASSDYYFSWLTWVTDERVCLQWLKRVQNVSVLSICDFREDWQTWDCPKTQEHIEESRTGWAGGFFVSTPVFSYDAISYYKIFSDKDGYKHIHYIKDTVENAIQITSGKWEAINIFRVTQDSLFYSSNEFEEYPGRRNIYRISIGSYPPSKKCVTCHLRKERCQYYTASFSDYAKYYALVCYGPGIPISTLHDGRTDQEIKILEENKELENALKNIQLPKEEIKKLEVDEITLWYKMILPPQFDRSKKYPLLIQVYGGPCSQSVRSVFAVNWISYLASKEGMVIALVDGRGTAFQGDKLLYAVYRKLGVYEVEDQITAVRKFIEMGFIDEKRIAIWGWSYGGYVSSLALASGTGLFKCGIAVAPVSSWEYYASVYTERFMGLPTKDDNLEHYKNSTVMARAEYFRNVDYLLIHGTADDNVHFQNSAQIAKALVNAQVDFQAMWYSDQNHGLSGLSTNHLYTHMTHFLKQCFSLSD
The experiment in a line: Kinetic evaluation of substrates. Conditions: for Km / kcat/KM / kcat: 10 nM FAPα, 37 °C, 60 min, Michaelis-Menten fit, triplicates; for Km: 50 mM Tris, 1 M NaCl, 1 mg/mL BSA, pH 7.5, ex/em 355/460 nm; for Km / kcat: ± SD. The procedure:
(§1) Fluorogenic Substrate Cleavage Assay
(§2) The following proteases were used for the activity assay: Recombinant Human FAPα Protein, CF (R&D Systems, Catalog No.: 3715-SE-010), Recombinant Human Prolyl Oligopeptidase/PREP Protein, CF (R&D Systems, Catalog No.: 4308-SE-010). Recombinant Human DPP9 Protein, CF (R&D Systems, Catalog No.: 5419-SE-010). Recombinant Human DPP4 Protein (Sino Biological, Catalog No.: 10688-HNCH-10). The buffers used for the activity assay were: FAPα - 50 mM Tris, 1 M NaCl, 1 mg/mL BSA, pH 7.5, PREP- 25 mM Tris, 250 mM NaCl, 2.5 mM DTT, pH 7.5 (DTT was freshly added immediately before use), DPP9- 25 mM Tris, pH 7.5, DPP4- 25 mM Tris, pH
(§3) 7.5. The following commercial substrates were used: zGP-AMC (Bachem,Catalog No.: […]
(§4) conducted in Greiner Bio-One black microplates of 384 wells and polystyrene F-bottom (Catalog No.: 784076). All compounds were dissolved in DMSO at a concentration of 10 mM and then diluted into the respective buffer to the desired final concentration. The protease was added to the specified concentration before the fluorescence measurements. For fluorescence measurements, 2 μL of substrate was further diluted into 6 μL of buffer, followed by addition of 2 μL of enzyme in buffer. For no enzyme controls 2 μL of substrate was diluted into 8 μL of buffer.
The fluorescence was measured using a Cytation 3 plate reader (BioTek). All experiments have at least three technical replicates. All assays were conducted at 37°C for a minimum of 90 min, unless otherwise noted. Fluorescence measurements were performed at ex/em, 355/460 nm for ACC substrates. The substrates velocity was quantified by calculating the slope of the linear phase of the reaction as relative fluorescence units (RFU) per min.
Kinetic evaluation of substrates
To order to determine the kcat/KM, the previously indicated proteases were tested under their corresponding buffer conditions. Substrates were serially diluted in water, and 2 µL of each dilution was added to 6 µL of assay buffer in a 384-well plate. The plate was briefly centrifuged to ensure proper mixing and to eliminate air bubbles. Fluorescence measurements were initiated by adding 2 µL of the protease solution (prepared in activity buffer) to each well, yielding a final volume of 10 µL. Reactions were monitored at 37 °C for 60 minutes using a plate reader set to excitation/emission wavelengths of 355/460 nm. Control wells without enzyme contained 8 µL of assay buffer, instead of enzyme, and 2 µL of substrate. All measurements were performed in at least triplicate. The initial linear portion of each fluorescence progress curve was used to calculate initial reaction velocities (RFU/min). Calibration curves using free AMC were generated under the corresponding buffer and assay conditions to allow extrapolation of RFU values to µM concentrations. Michaelis-Menten kinetic parameters K M, kcat and kcat/,KM were determined using […]
GraphPad Prism version 10.4.1. […]
determined due to poor model fit. […]

The target in assay [2] is T1, Recombinant Human FAPα. The experiment in a line: Fluorogenic substrate cleavage assay. The procedure: as §1, §2, §3, §4
(§5) The fluorescence was measured using a Cytation 3 plate reader (BioTek). All experiments have at least three technical replicates. All assays were conducted at 37°C for a minimum of 90 min, unless otherwise noted. Fluorescence measurements were performed at ex/em, 355/460 nm for ACC substrates. The substrates velocity was quantified by calculating the slope of the linear phase of the reaction as relative fluorescence units (RFU) per min. […]

The target of another assay is T2, Recombinant Human DPP9 (Homo sapiens, UniProt Q86TI2).
T2 construct: purchased R&D Systems 5419-SE-010
Briefly: Fluorogenic substrate cleavage assay. The note with it: Supplementary figure 11; 200 μM, 1 hour at 37°C; 2 nM DPP4 vs 6 nM DPP9; RFU/min. The procedure: as §1, §2, §3, §4, §5

What is called Km is the substrate concentration at which the rate is half of its maximum. What is called kcat/KM is the turnover number divided by the Michaelis constant. By kcat is commonly meant the number of substrate molecules converted per active site and unit of time at saturation.

*1 amine or outer side, *2 acyl side, *3 side chain or, on linkers, in order; H or OH if unused. Where a SMILES comes first, the peptide text is derived from it. Bridges are numbered along the chain shown (N, C = ends). The star is where a group is joined. X1 = NC(=O)Cc1cc(=O)oc2cc(NC(=O)[C@@H]3CCCN3C(=O)Cn3nc(C[*:1])cc3C[*:2])ccc12; X2 = NC(=O)Cc1cc(=O)oc2cc(NC(=O)[C@@H]3CCCN3C(=O)Cn3nc(C[*:2])cc3C[*:1])ccc12; AMC = Cc1cc(=O)oc2cc(N*)ccc12; Cbz = O=C(OCc1ccccc1)*

T2 sequence (Q86TI2 whole entry): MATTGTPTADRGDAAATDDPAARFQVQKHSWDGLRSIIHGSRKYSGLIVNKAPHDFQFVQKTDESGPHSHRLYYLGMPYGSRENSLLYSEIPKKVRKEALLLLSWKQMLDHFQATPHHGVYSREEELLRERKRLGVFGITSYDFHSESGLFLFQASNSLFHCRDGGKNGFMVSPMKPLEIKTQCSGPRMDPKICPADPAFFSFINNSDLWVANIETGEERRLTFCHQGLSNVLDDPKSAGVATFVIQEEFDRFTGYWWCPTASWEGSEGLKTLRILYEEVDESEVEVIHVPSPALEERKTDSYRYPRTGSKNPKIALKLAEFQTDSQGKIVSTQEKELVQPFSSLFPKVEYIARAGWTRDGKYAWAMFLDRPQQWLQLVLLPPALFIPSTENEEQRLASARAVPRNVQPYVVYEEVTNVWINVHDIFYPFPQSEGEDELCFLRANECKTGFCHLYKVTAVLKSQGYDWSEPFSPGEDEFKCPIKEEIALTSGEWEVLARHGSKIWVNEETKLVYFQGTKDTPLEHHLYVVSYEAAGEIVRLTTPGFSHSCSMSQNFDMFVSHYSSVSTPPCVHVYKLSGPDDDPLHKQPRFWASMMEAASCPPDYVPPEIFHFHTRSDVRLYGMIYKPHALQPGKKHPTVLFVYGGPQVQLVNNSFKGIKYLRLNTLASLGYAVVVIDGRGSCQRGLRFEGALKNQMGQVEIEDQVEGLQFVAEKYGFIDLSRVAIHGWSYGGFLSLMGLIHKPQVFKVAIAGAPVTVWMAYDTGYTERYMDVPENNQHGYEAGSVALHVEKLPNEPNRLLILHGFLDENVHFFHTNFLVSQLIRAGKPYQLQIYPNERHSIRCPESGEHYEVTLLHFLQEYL

On to `Cc1cc(=O)oc2cc(NC(=O)[C@@H]3CCCN3C(=O)CNC(=O)OCc3ccccc3)ccc12` [zGP-AMC] (Cbz-Gly-Pro-{AMC}), for which, on Recombinant Human FAPα [1], the Km was 145 ± 60 µM, the kcat/KM was found to be 155793 M⁻¹ s⁻¹ and the kcat is 22.59 ± 4.99 s⁻¹.
Turning to `CC(C)C[C@@H]1NC(=O)[C@H](CC(N)=O)NC(=O)[C@H](CCC(N)=O)NC(=O)[C@H](Cc2ccccc2)NC(=O)[C@H](CO)NC(=O)[C@H](C(C)C)NC(=O)[C@@H](N)CSCc2cc(nn2CC(=O)N2CCC[C@H]2C(=O)Nc2ccc3c(CC(N)=O)cc(=O)oc3c2)CSC[C@@H](C(=O)NCC(N)=O)NC(=O)[C@H](CC(=O)O)NC1=O` [FAP-33.2] (H-CVSFQNLDCG-NH2; linker 1-9 via X2; N-terminus assumed), at Recombinant Human FAPα [1], the kcat/KM was 23633 M⁻¹ s⁻¹ and the kcat was 0.709 ± 0.034 s⁻¹.
`CC(C)[C@@H]1NC(=O)[C@@H](N)CSCc2cc(n(CC(=O)N3CCC[C@H]3C(=O)Nc3ccc4c(CC(N)=O)cc(=O)oc4c3)n2)CSC[C@@H](C(=O)NCC(N)=O)NC(=O)[C@H](CC(=O)O)NC(=O)[C@H](C)NC(=O)[C@H](CC(N)=O)NC(=O)[C@H](CCC(N)=O)NC(=O)[C@H](Cc2ccccc2)NC(=O)[C@H](CO)NC1=O` [FAP-33.2A6] (H-CVSFQNADCG-NH2; linker 1-9 via X1; N-terminus assumed): on Recombinant Human FAPα [2] (substrate 200 μM, 10 nM FAPα, 37 °C, triplicates), the “FAPα activity (substrate cleavage, RFU/min), in words” value is on record as “better substrate than the parent FAP-33.2”. Also, at Recombinant Human FAPα [1], the kcat/KM amounted to 28312 M⁻¹ s⁻¹ and the kcat stood at 0.906 ± 0.050 s⁻¹.
For the molecule `Cc1cc(=O)oc2cc(NC(=O)[C@@H]3CCCN3C(=O)CN)ccc12` [GP-AMC] (H-Gly-Pro-{AMC}), the “selectivity for DPP4 (vs FAPα)” value at Recombinant Human FAPα [2] (Supplementary figure 11, 200 μM, 1 hour at 37°C, 2 nM DPP4 vs 10 nM FAPα, RFU/min) was 16 fold. The “selectivity for DPP4 (vs DPP9)” value on Recombinant Human DPP9 turned out to be 11 fold. Besides, at Recombinant Human FAPα [1], the Km came to 103 ± 31 µM and the kcat/KM stood at 637 M⁻¹ s⁻¹. For the same molecule, the “SI (selectivity index, coefficient of the proteases kcat/Km), DPP4 vs FAPα” value at Recombinant Human FAPα [1] (kcat/KM DPP4 over kcat/KM FAPα) amounted to 597.

Source of the values: paper PMC12314892, “Macrocyclic Phage Display for Identification of Selective Protease Substrates” (Journal of the American Chemical Society, 2025).
